Results: patent publication US9962430B2, “Methods for treating pain associated with chronic pancreatitis” (priority 2012, dated 2018)

How the values were obtained:
patients with CP = settings: cited from earlier work
[1] = test system: patients with type B pain from chronic pancreatitis; assay: Phase II dose-escalation trial: daily opioid use converted to morphine equivalents; assay type: in vivo, human; settings: for daily opioid usage (oral morphine equivalents): baseline 136 mg
[2] = test system: patients with type B pain from chronic pancreatitis; assay: Phase II dose-escalation trial: 10 point visual analogue scale (VAS) pain assessment; assay type: in vivo, human; settings: for mean pain score (VAS): all patients, baseline mean VAS 5.79; for Pain (VAS 0-10), mean: 100 min post dose, baseline 6.04
[3] = test system: patients with type B pain from chronic pancreatitis; assay: Phase II dose-escalation trial: quality of life by SF-36 score; assay type: in vivo, human; settings: for mean SF-36 score: baseline 101.3
[4] = 800 CU (160 mcg) twice daily for seven days, drug administration arm

Substance: depot secretin: subcutaneous depot secretin, 800 CU (160 mcg) twice daily, Tympner and Rosch 1986
- serum amylase levels (patients with CP; 800 CU (160 mcg) twice daily for seven days): strong trend towards decreased
- lactoferrin (patients with CP; [4]): decreased
- trypsin (patients with CP; [4]): decreased
- viscosity of pancreatic secretion (patients with CP; [4]): decreased
- pain levels at the end of the study (patients with CP; 800 CU (160 mcg) twice daily injection for seven days, p<0.05): significantly improved

Substance: sHS: ChiRhoStim (human secretin for injection) provided by ChiRhoClin Inc.; 27 amino acid gastrointestinal peptide hormone
- daily opioid equivalent, females ([1]; Day 30, females, baseline 107 mg, p=0.53): 84 mg
- daily opioid usage (oral morphine equivalents) ([1]; day 4 post-therapy, p=0.52): 111 mg
- daily opioid usage (oral morphine equivalents) ([1]; day 30 post-therapy, p=0.34): 104 mg
- mean pain (VAS), female subgroup ([2]; day 30, females, baseline 5.42, p=0.07): 3.67
- optimal dosing based on the change in the VAS score ([2]; dose-escalation 0.05-0.8 mcg/kg IV bolus): 0.4 µg/kg
- mean pain score (VAS) ([2]; post-treatment day 4, p=0.25 vs baseline, IV bolus 3x/day for 3 days): 4.80
- mean pain score (VAS) ([2]; post-treatment day 10, p=0.19 vs baseline): 4.72
- mean pain score (VAS) ([2]; post-treatment day 30, p=0.27 vs baseline): 4.90
- Pain (VAS 0-10), mean ([2]; sHS dose 0.05 μg/kg): 4.92
- Pain (VAS 0-10), mean ([2]; sHS dose 0.1 μg/kg): 5.06
- Pain (VAS 0-10), mean ([2]; sHS dose 0.2 μg/kg): 4.92
- Pain (VAS 0-10), mean ([2]; sHS dose 0.4 μg/kg): 4.5
- Pain (VAS 0-10), mean ([2]; sHS dose 0.8 μg/kg): 5.36
- mean SF-36 score ([3]; day 4): 100.9
- mean SF-36 score ([3]; day 30): 101.5
- quality of life as measured by SF-36 with therapy ([3]; overall statement): unaltered
